From patent US8889677B2, “Substituted triazoles useful as mGlu5 receptor modulators” (Boehringer Ingellheim International GmbH, priority 2012, dated 2014)
pEC50: −log10 of the molar value.

Molecular target: T1, human recombinant mGluR5 (Homo sapiens, UniProt P41594)
T1 construct: expressed in transfected cells; host or cells: HEK 293 cell line cultured with tetracycline, hygromycin and geneticin; tetracycline removed 3-7 days before the assay
Experiment: positive modulation of mGluR5, calcium based FLIPR assay in HEK 293 cells
Details: HEK 293 cell line expressing human recombinant mGluR5; EC50 of the modulation of the glutamate response (glutamate approx. 5% basal stimulation); peak height of Ca release fluorescence signal
How it was run: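 HEK 293 cells expressing human mGluR5 (tetracycline-free medium 3-7 days before), loaded with Calcium-4 dye, in Ringer buffer pH 7.4, 1% DMSO. Compound pre-incubated 5 min, then glutamate at about 5% of maximal effect added; EC50 from peak Ca2+ fluorescence by nonlinear regression, scaled between DMSO (100%) and 10 μM CDPPB (200%) controls.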

T1 sequence (P41594 21-1212): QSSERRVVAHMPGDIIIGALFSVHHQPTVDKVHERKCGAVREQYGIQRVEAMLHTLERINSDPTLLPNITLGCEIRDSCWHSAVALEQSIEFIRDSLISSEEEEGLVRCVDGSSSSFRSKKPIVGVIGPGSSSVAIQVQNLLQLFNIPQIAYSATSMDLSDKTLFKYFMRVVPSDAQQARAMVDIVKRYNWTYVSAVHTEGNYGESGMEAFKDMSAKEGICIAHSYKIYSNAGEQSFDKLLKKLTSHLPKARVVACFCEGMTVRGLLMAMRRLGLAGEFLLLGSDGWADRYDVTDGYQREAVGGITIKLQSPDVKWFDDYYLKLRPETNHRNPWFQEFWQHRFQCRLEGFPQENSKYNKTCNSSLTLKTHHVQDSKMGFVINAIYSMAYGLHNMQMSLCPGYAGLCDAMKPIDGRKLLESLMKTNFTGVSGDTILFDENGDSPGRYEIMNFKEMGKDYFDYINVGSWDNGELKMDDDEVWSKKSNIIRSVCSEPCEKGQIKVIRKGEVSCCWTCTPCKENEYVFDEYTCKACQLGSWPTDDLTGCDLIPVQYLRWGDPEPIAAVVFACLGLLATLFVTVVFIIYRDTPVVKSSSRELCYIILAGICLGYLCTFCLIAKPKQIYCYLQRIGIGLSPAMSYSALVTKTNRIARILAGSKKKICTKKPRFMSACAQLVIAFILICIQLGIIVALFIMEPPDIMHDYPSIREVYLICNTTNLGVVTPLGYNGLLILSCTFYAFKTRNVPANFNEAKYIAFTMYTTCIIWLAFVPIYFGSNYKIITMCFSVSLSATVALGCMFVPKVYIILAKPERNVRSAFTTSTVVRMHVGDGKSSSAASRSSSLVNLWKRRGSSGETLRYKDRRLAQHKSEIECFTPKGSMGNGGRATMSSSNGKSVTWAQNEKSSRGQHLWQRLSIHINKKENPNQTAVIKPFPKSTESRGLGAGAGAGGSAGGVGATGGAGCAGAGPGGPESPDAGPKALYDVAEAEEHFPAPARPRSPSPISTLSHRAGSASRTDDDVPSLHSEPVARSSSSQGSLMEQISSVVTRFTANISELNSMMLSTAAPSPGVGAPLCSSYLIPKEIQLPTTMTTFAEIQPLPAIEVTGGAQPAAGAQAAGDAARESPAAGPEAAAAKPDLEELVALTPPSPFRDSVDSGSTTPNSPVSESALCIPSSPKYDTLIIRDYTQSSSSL

| pEC50 | Compound |
| --- | --- |
| 6.42 | Cc1ccnc(N2CCN(C(=O)Cn3nc(-c4ccc(F)c(C)c4)nc3CC(C)C)CC2)c1 [Example 07.04.105.] |
| 6.41 | Cc1cc(-c2nc(CC(C)C)n(CC(=O)N3CCN(c4ccccn4)CC3)n2)ccc1F [Example 07.04.106.] |
| 6.30 | COc1ccnc(N2CCN(C(=O)Cn3nc(-c4ccc(F)c(C)c4)nc3CC(C)C)CC2)c1 [Example 07.04.107.] |
| 6.50 | Cc1cc(-c2nc(CC(C)C)n(CC(=O)N3CCN(c4ncccn4)CC3)n2)ccc1F [Example 07.04.108.] |
| 6.08 | COc1cc(N2CCN(C(=O)Cn3nc(-c4ccc(F)c(C)c4)nc3CC(C)C)CC2)ncn1 [Example 07.04.109.] |
| 6.39 | COc1ccnc(N2CCN(C(=O)Cn3nc(-c4ccc(F)c(C)c4)nc3C3CCCC3)CC2)c1 [Example 07.04.110.] |
| 6.88 | Cc1cc(-c2nc(C3CCCC3)n(CC(=O)N3CCN(c4ncccn4)CC3)n2)ccc1F [Example 07.04.111.] |
| 6.51 | COc1cc(N2CCN(C(=O)Cn3nc(-c4ccc(F)c(C)c4)nc3C3CCCC3)CC2)ncn1 [Example 07.04.112.] |
| 6.58 | Cc1cc(-c2nc(C3CCCC3)n(CC(=O)N3CCN(c4ccccn4)CC3)n2)ccc1F [Example 07.04.113.] |
| 6.31 | Cc1ccnc(N2CCN(C(=O)Cn3nc(-c4ccc(F)c(C)c4)nc3C3CCCC3)CC2)c1 [Example 07.04.114.] |
| 6.68 | CCCCc1nc(-c2ccc(F)c(C)c2)nn1CC(=O)N1CCN(c2cc(C)ccn2)CC1 [Example 07.04.115.] |
| 6.16 | CCCCc1nc(-c2ccc(F)c(C)c2)nn1CC(=O)N1CCN(c2ccccn2)CC1 [Example 07.04.116.] |
| 6.41 | CCCCc1nc(-c2ccc(F)c(C)c2)nn1CC(=O)N1CCN(c2ncccn2)CC1 [Example 07.04.117.] |
| 6.59 | CCCCc1nc(-c2ccc(F)c(C)c2)nn1CC(=O)N1CCN(c2cc(OC)ccn2)CC1 [Example 07.04.118.] |
| 6.53 | CCCCc1nc(-c2ccc(F)c(C)c2)nn1CC(=O)N1CCN(c2cc(OC)ncn2)CC1 [Example 07.04.119.] |
| 6.82 | COc1ccnc(N2CCN(C(=O)Cn3nc(-c4ccc(F)c(C)c4)nc3CCC(C)C)CC2)c1 [Example 07.04.120.] |
| 6.68 | Cc1ccnc(N2CCN(C(=O)Cn3nc(-c4ccc(F)c(C)c4)nc3CCC(C)C)CC2)c1 [Example 07.04.121.] |
| 6.85 | Cc1cc(-c2nc(CCC(C)C)n(CC(=O)N3CCN(c4ncccn4)CC3)n2)ccc1F [Example 07.04.122.] |
| 7.04 | CCCCCc1nc(-c2ccc(F)c(C)c2)nn1CC(=O)N1CCN(c2cc(OC)ccn2)CC1 [Example 07.04.123.] |
| 6.90 | CCCCCc1nc(-c2ccc(F)c(C)c2)nn1CC(=O)N1CCN(c2ccccn2)CC1 [Example 07.04.124.] |
| 6.96 | CCCCCc1nc(-c2ccc(F)c(C)c2)nn1CC(=O)N1CCN(c2cc(C)ccn2)CC1 [Example 07.04.125.] |
| 6.96 | CCCCCc1nc(-c2ccc(F)c(C)c2)nn1CC(=O)N1CCN(c2cc(OC)ncn2)CC1 [Example 07.04.126.] |
| 7.19 | CCCCCc1nc(-c2ccc(F)c(C)c2)nn1CC(=O)N1CCN(c2ncccn2)CC1 [Example 07.04.127.] |

| pEC50 | Compound |
| --- | --- |
| 6.31 | Cc1cc(-c2nc(C3CCC(C)CC3)n(CC(=O)N3CCN(c4ncccn4)CC3)n2)ccc1F (stereo not shown) [Example 07.04.128.] |
| 5.88 | Cc1cc(-c2nc(C3CCC(C)CC3)n(CC(=O)N3CCN(c4ccccn4)CC3)n2)ccc1F (stereo not shown) [Example 07.04.129.] |
| 6.07 | Cc1ccnc(N2CCN(C(=O)Cn3nc(-c4ccc(F)c(C)c4)nc3C3CCC(C)CC3)CC2)c1 (stereo not shown) [Example 07.04.130.] |
| 6.00 | COc1ccnc(N2CCN(C(=O)Cn3nc(-c4ccc(F)c(C)c4)nc3C3CCC(C)CC3)CC2)c1 (stereo not shown) [Example 07.04.131.] |
| 6.02 | COc1cc(N2CCN(C(=O)Cn3nc(-c4ccc(F)c(C)c4)nc3C3CCC(C)CC3)CC2)ncn1 (stereo not shown) [Example 07.04.132.] |
| 5.97 | Cc1cc(-c2nc(C3CCCCC3C)n(CC(=O)N3CCN(c4ccccn4)CC3)n2)ccc1F (stereo not shown) [Example 07.04.133.] |
| 5.99 | Cc1ccnc(N2CCN(C(=O)Cn3nc(-c4ccc(F)c(C)c4)nc3C3CCCCC3C)CC2)c1 (stereo not shown) [Example 07.04.134.] |
| 6.41 | Cc1cc(-c2nc(C3CCCCC3C)n(CC(=O)N3CCN(c4ncccn4)CC3)n2)ccc1F (stereo not shown) [Example 07.04.135.] |
| 5.91 | COc1ccnc(N2CCN(C(=O)Cn3nc(-c4ccc(F)c(C)c4)nc3C3CCCCC3C)CC2)c1 (stereo not shown) [Example 07.04.136.] |
| 5.98 | COc1cc(N2CCN(C(=O)Cn3nc(-c4ccc(F)c(C)c4)nc3C3CCCCC3C)CC2)ncn1 (stereo not shown) [Example 07.04.137.] |
| 6.00 | Cc1ccnc(N2CCN(C(=O)Cn3nc(-c4ccc(F)cn4)nc3-c3ccc(F)cc3)CC2)c1 [Example 07.04.138.] |
| 6.09 | O=C(Cn1nc(-c2ccc(F)cn2)nc1-c1ccc(F)cc1)N1CCN(c2ccccn2)CC1 [Example 07.04.139.] |
| 6.49 | O=C(Cn1nc(-c2ccc(F)cn2)nc1-c1ccc(F)cc1)N1CCN(c2ncccn2)CC1 [Example 07.04.140.] |
| 6.03 | COc1cc(N2CCN(C(=O)Cn3nc(-c4ccc(F)cn4)nc3-c3ccc(F)cc3)CC2)ncn1 [Example 07.04.141.] |
| 6.36 | COc1ccnc(N2CCN(C(=O)Cn3nc(-c4ccc(F)cn4)nc3-c3ccc(F)cc3)CC2)c1 [Example 07.04.142.] |
| 6.11 | Cc1ccnc(N2CCN(C(=O)Cn3nc(-c4ccc(F)cc4)nc3-c3ccc(F)cn3)CC2)c1 [Example 07.04.143.] |
| 5.90 | Cc1cc(-c2nc(C3CCC(F)(F)CC3)n(CC(=O)N3CCN(c4ncccn4)CC3)n2)ccc1F [Example 07.04.144.] |
| 6.43 | Cc1cc(-c2nc(C3CCCC(C)C3)n(CC(=O)N3CCN(c4ncccn4)CC3)n2)ccc1F (stereo not shown) [Example 07.04.145.] |
| 5.87 | Cc1ccnc(N2CCN(C(=O)Cn3nc(-c4ccc(F)c(C)c4)nc3C3CCCC(C)C3)CC2)c1 (stereo not shown) [Example 07.04.146.] |
| 6.15 | COc1cc(N2CCN(C(=O)Cn3nc(-c4ccc(F)c(C)c4)nc3C3CCCC(C)C3)CC2)ncn1 (stereo not shown) [Example 07.04.147.] |
| 6.04 | COc1ccnc(N2CCN(C(=O)Cn3nc(-c4ccc(F)c(C)c4)nc3C3CCCC(C)C3)CC2)c1 (stereo not shown) [Example 07.04.148.] |
| 6.06 | Cc1cc(-c2nc(C3CCCC(C)C3)n(CC(=O)N3CCN(c4ccccn4)CC3)n2)ccc1F (stereo not shown) [Example 07.04.149.] |
| 6.49 | O=C(Cn1nc(-c2ccc(F)cc2)nc1CCc1ccccc1)N1CCN(c2ncccn2)CC1 [Example 07.04.150.] |

| pEC50 | Compound |
| --- | --- |
| 6.25 | Cc1ccnc(N2CCN(C(=O)Cn3nc(-c4ccc(F)cc4)nc3CCc3ccccc3)CC2)c1 [Example 07.04.151.] |
| 6.76 | COc1ccc(-c2nc(-c3ccccc3)n(CC(=O)N3CCN(c4cc(OC)ncn4)CC3)n2)cc1 [Example 07.04.152.] |
| 7.66 | Cc1cc(-c2nc(-c3ccc(F)c(C)c3)n(CC(=O)N3CCN(c4ncccn4)CC3)n2)ccc1F [Example 07.04.153.] |
| 7.27 | Cc1cc(-c2nc(-c3ccc(F)c(C)c3)n(CC(=O)N3CCN(c4ccccn4)CC3)n2)ccc1F [Example 07.04.154.] |
| 7.23 | COc1cc(N2CCN(C(=O)Cn3nc(-c4ccc(F)c(C)c4)nc3-c3ccc(F)c(C)c3)CC2)ncn1 [Example 07.04.155.] |
| 7.74 | COc1cc(-c2nc(-c3ccc(F)cc3)n(CC(=O)N3CCN(c4ncccn4)CC3)n2)ccc1F [Example 07.04.156.] |
| 7.44 | COc1cc(-c2nc(-c3ccc(F)cc3)n(CC(=O)N3CCN(c4ccccn4)CC3)n2)ccc1F [Example 07.04.157.] |
| 7.57 | COc1cc(N2CCN(C(=O)Cn3nc(-c4ccc(F)c(OC)c4)nc3-c3ccc(F)cc3)CC2)ncn1 [Example 07.04.158.] |
| 6.55 | COc1ccc(-c2nc(-c3ccccc3)n(CC(=O)N3CCN(c4cccc(OC)n4)CC3)n2)cc1 [Example 07.04.159.] |
| 7.10 | COc1ccc(-c2nc(-c3ccccc3)n(CC(=O)N3CCN(c4cc(C)ccn4)CC3)n2)cc1 [Example 07.04.160.] |
| 5.82 | COc1cccc(-c2nc(C(C)C)n(CC(=O)N3CCN(c4ncccn4)CC3)n2)c1 [Example 07.04.161.] |
| 7.72 | COc1cc(N2CCN(C(=O)Cn3nc(-c4ccc(OC(F)F)cc4)nc3-c3ccccc3)CC2)ncn1 [Example 7.04.162] |
| 6.07 | CCc1nc(-c2ccc(OC(F)F)cc2)nn1CC(=O)N1CCN(c2ncccn2)CC1 [Example 7.04.163] |
| 7.66 | O=C(Cn1nc(-c2ccc(OC(F)F)cc2)nc1-c1ccccc1)N1CCN(c2ccccn2)CC1 [Example 7.04.164] |
| 7.89 | O=C(Cn1nc(-c2ccc(OC(F)F)cc2)nc1-c1ccccc1)N1CCN(c2ncccn2)CC1 [Example 7.04.165] |
| 6.37 | O=C(Cn1nc(-c2ccccc2)nc1-c1ccc(OC(F)F)cc1)N1CCN(c2ccccn2)CC1 [Example 7.04.166] |
| 6.28 | CCCc1nc(-c2ccc(OC(F)F)cc2)nn1CC(=O)N1CCN(c2ccccn2)CC1 [Example 7.04.167] |
| 6.60 | CCCc1nc(-c2ccc(OC(F)F)cc2)nn1CC(=O)N1CCN(c2ncccn2)CC1 [Example 7.04.168] |
| 6.03 | CCCc1nc(-c2ccc(OC(F)F)cc2)nn1CC(=O)N1CCN(c2cc(OC)ncn2)CC1 [Example 7.04.169] |
| 7.30 | CCOc1ccnc(N2CCN(C(=O)Cn3nc(-c4ccc(F)cc4)nc3-c3ccc(F)cc3)CC2)c1 [Example 07.05.01., 2-(3,5-Bis-(4-fluoro-phenyl)-(1,2,4)triazol-1-yl)-1-(4-(4-ethoxy-pyridin-2-yl)-piperazin-1-yl)-ethanone] |
| 7.37 | CCc1ccnc(N2CCN(C(=O)Cn3nc(-c4ccc(F)cc4)nc3-c3ccc(F)cc3)CC2)c1 [Example 07.05.02.] |
